{
  "source": "ChEMBL document CHEMBL1201862",
  "about": "“PubChem BioAssay data set” (2004)",
  "key": {"[1]": {"biological_target": "Voltage-dependent T-type calcium channel subunit alpha-1H (Homo sapiens, UniProt O95180)", "sequence (O95180 whole entry)": "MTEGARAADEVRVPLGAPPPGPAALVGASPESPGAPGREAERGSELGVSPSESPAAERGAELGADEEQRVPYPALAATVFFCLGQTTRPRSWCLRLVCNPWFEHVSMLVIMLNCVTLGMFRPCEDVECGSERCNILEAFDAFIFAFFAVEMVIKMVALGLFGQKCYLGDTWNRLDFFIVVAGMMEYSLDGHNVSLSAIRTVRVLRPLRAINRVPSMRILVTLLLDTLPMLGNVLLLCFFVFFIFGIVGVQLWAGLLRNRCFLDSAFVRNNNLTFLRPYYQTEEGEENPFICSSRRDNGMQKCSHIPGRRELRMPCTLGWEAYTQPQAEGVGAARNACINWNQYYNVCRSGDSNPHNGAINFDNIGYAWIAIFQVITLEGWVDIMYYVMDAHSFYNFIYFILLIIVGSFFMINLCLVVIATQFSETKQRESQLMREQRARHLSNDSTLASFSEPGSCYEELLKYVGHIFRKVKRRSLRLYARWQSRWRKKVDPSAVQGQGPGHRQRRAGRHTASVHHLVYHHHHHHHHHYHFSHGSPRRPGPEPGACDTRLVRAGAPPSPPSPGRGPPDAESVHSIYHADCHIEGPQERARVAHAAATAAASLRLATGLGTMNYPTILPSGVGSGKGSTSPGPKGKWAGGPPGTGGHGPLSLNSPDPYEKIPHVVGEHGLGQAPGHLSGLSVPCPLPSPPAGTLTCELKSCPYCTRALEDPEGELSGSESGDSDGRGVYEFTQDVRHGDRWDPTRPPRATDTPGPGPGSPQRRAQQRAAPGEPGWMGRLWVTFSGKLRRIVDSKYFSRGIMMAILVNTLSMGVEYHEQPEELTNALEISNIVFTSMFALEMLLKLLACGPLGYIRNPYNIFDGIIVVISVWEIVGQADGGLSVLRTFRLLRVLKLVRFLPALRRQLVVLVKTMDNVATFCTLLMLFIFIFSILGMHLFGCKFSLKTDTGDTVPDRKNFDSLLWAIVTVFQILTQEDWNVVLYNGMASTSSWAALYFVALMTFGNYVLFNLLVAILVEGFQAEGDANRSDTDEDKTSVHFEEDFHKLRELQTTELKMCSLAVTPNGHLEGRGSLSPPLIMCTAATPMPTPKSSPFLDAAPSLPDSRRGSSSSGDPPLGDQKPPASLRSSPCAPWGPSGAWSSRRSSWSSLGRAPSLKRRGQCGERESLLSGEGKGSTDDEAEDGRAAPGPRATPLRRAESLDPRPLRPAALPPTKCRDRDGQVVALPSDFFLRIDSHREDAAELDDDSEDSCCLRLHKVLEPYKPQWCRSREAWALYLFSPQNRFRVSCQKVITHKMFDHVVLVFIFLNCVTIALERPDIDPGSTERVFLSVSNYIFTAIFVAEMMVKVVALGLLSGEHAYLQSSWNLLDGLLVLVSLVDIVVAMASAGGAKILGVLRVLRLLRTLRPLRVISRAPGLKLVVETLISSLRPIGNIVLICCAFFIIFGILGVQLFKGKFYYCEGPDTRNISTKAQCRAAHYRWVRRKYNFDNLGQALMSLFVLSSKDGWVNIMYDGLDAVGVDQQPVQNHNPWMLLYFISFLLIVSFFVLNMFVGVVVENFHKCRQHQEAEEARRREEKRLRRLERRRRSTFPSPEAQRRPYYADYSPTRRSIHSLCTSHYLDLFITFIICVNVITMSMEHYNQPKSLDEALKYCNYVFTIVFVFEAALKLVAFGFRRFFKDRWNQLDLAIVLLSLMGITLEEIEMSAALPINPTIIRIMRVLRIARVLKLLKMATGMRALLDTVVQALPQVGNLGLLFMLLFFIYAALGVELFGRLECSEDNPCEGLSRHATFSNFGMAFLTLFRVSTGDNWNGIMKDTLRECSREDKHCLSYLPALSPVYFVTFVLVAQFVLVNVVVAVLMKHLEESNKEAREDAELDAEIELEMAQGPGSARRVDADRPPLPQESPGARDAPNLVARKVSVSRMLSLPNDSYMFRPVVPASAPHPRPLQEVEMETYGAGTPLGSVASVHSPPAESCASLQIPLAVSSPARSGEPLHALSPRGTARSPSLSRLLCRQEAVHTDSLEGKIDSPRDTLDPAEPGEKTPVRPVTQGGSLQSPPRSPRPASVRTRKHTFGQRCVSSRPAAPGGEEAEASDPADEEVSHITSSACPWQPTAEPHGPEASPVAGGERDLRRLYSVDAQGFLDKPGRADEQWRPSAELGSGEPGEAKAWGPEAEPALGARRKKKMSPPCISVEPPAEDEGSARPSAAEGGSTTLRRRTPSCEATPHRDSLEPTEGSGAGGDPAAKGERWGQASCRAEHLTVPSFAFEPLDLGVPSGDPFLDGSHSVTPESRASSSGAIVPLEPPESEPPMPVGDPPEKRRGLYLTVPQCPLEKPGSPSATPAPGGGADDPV", "format": "functional"}, "[2]": {"test": "A Cell Based Secondary Assay To Explore Cytotoxicity of Compounds that Sensitize Mycobacterium Tuberculosis to Beta-Lactam Antibiotics.", "format": "functional"}, "[3]": {"biological_target": "DNA dC->dU-editing enzyme APOBEC-3G (Homo sapiens, UniProt Q9HC16)", "sequence (Q9HC16 whole entry)": "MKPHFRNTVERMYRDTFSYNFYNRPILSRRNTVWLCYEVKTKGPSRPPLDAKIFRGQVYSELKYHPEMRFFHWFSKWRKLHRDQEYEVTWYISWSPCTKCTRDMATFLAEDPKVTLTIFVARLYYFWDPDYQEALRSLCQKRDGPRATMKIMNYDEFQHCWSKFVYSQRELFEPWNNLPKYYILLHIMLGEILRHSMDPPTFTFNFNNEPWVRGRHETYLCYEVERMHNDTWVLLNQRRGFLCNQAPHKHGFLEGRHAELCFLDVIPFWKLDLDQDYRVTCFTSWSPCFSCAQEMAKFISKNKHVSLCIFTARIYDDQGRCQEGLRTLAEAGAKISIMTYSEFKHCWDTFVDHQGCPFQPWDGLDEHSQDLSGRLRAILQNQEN", "test": "Dose Response confirmation of small molecule APOBEC3G DNA Deaminase Inhibitors via a fluorescence-based single-stranded DNA deaminase assay. [Related pubchem assays (depositor defined):AID493012, AID493028]", "format": "functional"}, "[4]": {"biological_target": "Large T antigen (Simian virus 40, UniProt P03070)", "sequence (P03070 whole entry)": "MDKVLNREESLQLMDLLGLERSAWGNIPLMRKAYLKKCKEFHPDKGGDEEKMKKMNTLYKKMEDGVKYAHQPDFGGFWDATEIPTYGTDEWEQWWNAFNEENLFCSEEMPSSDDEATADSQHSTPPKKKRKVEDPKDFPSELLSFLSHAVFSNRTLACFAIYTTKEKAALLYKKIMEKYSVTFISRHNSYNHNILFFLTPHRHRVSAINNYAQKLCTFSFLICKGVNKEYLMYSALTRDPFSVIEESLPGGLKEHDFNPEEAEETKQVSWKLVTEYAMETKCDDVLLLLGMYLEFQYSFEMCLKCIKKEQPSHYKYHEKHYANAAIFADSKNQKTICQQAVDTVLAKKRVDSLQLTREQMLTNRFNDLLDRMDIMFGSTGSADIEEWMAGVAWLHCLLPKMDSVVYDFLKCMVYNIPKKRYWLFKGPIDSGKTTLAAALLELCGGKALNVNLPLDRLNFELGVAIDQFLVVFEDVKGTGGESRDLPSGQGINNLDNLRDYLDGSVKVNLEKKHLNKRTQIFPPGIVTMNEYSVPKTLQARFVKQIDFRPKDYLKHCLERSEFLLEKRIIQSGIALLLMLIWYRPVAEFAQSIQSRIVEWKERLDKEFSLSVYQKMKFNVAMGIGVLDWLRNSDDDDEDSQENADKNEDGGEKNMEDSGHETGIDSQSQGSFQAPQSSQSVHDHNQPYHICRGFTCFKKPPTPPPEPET", "format": "functional, Betapolyomavirus macacae"}, "[5]": {"biological_target": "DNA dC->dU-editing enzyme APOBEC-3A (Homo sapiens, UniProt P31941)", "sequence (P31941 whole entry)": "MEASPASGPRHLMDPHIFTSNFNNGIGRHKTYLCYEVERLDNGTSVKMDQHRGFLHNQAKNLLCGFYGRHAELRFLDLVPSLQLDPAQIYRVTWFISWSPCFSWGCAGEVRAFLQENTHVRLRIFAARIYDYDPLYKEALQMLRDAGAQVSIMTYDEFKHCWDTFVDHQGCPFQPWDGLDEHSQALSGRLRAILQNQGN", "test": "A3A deaminase inhibition for selectivity – biochemical, dose response (AID 504722)", "format": "functional"}, "[6]": {"test": "HEK-293T cell viability reduction – luminescence, B-cell screen hits, cytotoxicity control for BCR NF-kB inhibitor project, dose response (AID 489021);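 note: HEK-293T cells carrying an NF-kB luciferase reporter; cells exposed to compound for about 14 hours before viability readout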", "format": "functional, cell-based"}, "[7]": {"biological_target": "T1, Leucine aminopeptidase (Plasmodium falciparum 3D7, UniProt Q8IL11)", "T1 sequence (Q8IL11 whole entry)": "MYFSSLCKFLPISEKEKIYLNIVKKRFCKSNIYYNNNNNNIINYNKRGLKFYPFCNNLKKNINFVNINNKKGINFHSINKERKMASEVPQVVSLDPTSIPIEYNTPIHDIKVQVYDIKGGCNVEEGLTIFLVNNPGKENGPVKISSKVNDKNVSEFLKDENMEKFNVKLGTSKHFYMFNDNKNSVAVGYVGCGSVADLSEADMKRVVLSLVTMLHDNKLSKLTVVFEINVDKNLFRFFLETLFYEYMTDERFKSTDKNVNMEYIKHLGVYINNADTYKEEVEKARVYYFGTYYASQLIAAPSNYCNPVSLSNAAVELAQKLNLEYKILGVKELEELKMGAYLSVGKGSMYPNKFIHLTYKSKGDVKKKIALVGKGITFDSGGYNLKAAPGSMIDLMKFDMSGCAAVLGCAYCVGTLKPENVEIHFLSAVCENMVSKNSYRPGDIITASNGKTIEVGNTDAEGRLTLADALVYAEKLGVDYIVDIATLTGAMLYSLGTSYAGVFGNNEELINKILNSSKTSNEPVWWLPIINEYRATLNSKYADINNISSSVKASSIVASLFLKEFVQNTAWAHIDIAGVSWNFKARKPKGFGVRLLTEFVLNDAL", "test": "P. falciparum M17LAP inhibitors, primary screen, biochemical, fluorogenic H-Leu-NHMec substrate, 1536-well (AID 1619)", "format": "functional"}, "[8]": {"biological_target": "T2, Aminopeptidase N (Plasmodium falciparum FcB1/Columbia, UniProt O96935)", "T2 sequence (O96935 whole entry)": "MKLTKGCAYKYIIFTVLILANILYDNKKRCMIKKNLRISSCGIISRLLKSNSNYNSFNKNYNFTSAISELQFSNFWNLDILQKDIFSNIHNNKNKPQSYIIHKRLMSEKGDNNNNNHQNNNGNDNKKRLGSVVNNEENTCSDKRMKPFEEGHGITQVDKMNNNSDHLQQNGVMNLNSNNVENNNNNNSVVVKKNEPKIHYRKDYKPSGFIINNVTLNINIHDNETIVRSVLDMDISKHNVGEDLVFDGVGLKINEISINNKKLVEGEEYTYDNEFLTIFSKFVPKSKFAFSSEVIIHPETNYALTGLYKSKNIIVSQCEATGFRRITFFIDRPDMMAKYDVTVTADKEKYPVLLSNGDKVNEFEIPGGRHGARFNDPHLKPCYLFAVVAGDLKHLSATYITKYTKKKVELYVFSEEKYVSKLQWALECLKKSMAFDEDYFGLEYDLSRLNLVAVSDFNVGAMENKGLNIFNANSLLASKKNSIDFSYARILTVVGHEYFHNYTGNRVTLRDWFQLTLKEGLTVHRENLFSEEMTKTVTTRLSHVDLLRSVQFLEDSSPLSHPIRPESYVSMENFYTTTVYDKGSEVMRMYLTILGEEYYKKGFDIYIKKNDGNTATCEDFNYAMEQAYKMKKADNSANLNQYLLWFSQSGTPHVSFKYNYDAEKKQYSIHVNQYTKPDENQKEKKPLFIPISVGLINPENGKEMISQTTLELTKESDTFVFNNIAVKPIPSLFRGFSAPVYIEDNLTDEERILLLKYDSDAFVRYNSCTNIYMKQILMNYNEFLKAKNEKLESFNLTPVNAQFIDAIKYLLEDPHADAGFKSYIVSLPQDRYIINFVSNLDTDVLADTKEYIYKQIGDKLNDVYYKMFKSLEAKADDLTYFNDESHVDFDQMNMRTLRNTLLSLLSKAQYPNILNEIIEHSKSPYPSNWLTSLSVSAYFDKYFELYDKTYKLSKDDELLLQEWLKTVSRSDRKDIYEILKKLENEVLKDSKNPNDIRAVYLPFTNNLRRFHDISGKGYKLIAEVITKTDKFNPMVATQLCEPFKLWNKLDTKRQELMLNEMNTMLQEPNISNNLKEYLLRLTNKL", "test": "malaria alanyl aminopeptidase activity blockers – biochemical, fluorogenic H-Leu-NHMec substrate, 1536-well (AID 1445)", "design": "species or system Plasmodium falciparum 3D7, 3D7"}, "[9]": {"test": "NIH3T3 cell viability loss – ATP luminescence, mouse fibroblasts, counter-screen, dose response (AID 2010);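 note: cells exposed to compound for about 90 hours before reading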", "format": "functional, cell-based"}, "[10]": {"test": "Trypanosoma cruzi growth suppression in host cells – NIH3T3 host cells, beta-gal luminescence, confirmation (AID 2044);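 note: intracellular parasites grown in NIH/3T3 mouse fibroblasts as host cells; luminescent beta-galactosidase reporter signal from transgenic T. cruzi replicating inside host cells; inhibitors lower the luminescence signal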", "format": "functional, cell-based"}},
  "note": "Active and inactive are the calls of the source.",
  "data": [
    {"compound": "Cc1ccc(-c2noc(CSc3nnc(Cc4ccccc4)n3-c3ccc(Cl)cc3)n2)cc1", "values": [
      {"measurement": "EC50", "setting": "[1]", "result": "4.98 µM (active)"}
    ]},
    {"compound": "O=C1N=C(N2CCCC2)S/C1=C\\c1cccc(Br)c1", "values": [
      {"measurement": "CC50", "setting": "[2]", "result": "> 40 µM (active)"}
    ]},
    {"compound": "COc1cc(/C=C/C(=O)OCC(=O)Nc2cc(C)c(C)cc2[N+](=O)[O-])ccc1O", "values": [
      {"measurement": "CC50", "setting": "[2]", "result": "> 40 µM (active)"}
    ]},
    {"compound": "CC(/C=N/n1c(S)nnc1-c1[nH]nc2c1CCC2)=C\\c1ccco1", "values": [
      {"measurement": "IC50", "setting": "[3]", "result": "2.29 µM (active)"},
      {"measurement": "IC50", "setting": "[4]", "result": "32.3 µM (active)"},
      {"measurement": "IC50", "setting": "[5]", "result": "> 100 µM (inactive)"}
    ]},
    {"compound": "COc1ccc(-c2csc(Nc3ncccc3C)n2)cc1OC", "values": [
      {"measurement": "CC50", "setting": "[2]", "result": "> 40 µM (active)"}
    ]},
    {"compound": "ClCc1nnc(-c2ccccc2)o1", "values": [
      {"measurement": "IC50", "setting": "[6]", "result": "> 80 µM (inactive)"}
    ]},
    {"compound": "Cc1cccn2c(=O)c3cc(C(=O)NC4CCCCC4)c(=N)n(CCN4CCOCC4)c3nc12", "values": [
      {"measurement": "IC50", "setting": "[6]", "result": "> 80 µM (inactive)"}
    ]},
    {"compound": "O=C(NCc1ccccc1)c1ccc2c(=O)[nH]c3c(C(=O)NCC4CCCO4)sc(=S)n3c2c1", "note": "(centres undefined)", "values": [
      {"measurement": "IC50", "setting": "[7]", "result": "8.61 µM (active)"},
      {"measurement": "IC50", "setting": "[8]", "result": "29.2 µM (active)"}
    ]},
    {"compound": "Cc1ccc(NC(=O)C(Cc2ccccc2)N2C(=O)C3C4CCC(C4)C3C2=O)cc1Cl", "note": "(centres undefined)", "values": [
      {"measurement": "EC50", "setting": "[1]", "result": "5.73 µM (active)"},
      {"measurement": "EC50", "setting": "[9]", "result": "> 60 µM (not active)"},
      {"measurement": "EC50", "setting": "[10]", "result": "0.871 µM (active)"}
    ]}
  ]
}
